Test results: patent US20200297760A1, “COMPOSITIONS AND METHODS FOR REDUCING IMMUNE RESPONSES AGAINST CHIMERIC ANTIGEN RECEPTORS” (Juno Therapeutics, Inc., priority 2015, published 2020)
No end group written: not given here.

Legend:
Assay in all cases: REVEAL Epitope Discovery System in vitro MHC-peptide binding assay
[1] = molecular target: HLA-A*11:01 (Homo sapiens, UniProt P04439, A114D/D185E/E176A/F33Y/L180Q/S129P/T187R); conditions: binding normalized to positive control peptide set at 100%, >50 considered good or high affinity binding
Experimental: (§1) Actual binding affinities for certain HLA class I alleles (A*02:01, A*03:01, A*11:01, and B*08:01) were assessed in vitro for exemplary overlapping 9 amino acid peptide sequences within a portion of the 26 amino acid junction region spanning the CD28 and 4-1BB junction. Specifically, assessment was of a series of overlapping 9-mer peptides derived from the sequence […] (set forth in SEQ ID NO: 7), which contains a portion of the CD28 transmembrane domain and 4-1BB costimulatory domain spanning the junction between the domains (bond joining the two amino acids noted in underline). In addition, a series of overlapping 9-mer peptides of each of a number of different variants of this portion also were assessed, each variant containing a mutation or mutations in this region as described in Example 2.
(§2) The various 9-mer overlapping peptides were synthesized and their purity tested by MALDI-TOF Mass Spectrometry. The synthetic peptides were then incubated with recombinant MHC molecules to assess binding properties using the REVEAL Epitope Discovery System, which is a high-throughput binding assay that measures the degree to which each peptide is able to stabilize a ternary MHC-peptide complex (Prolmmune, Oxford, United Kingdom). Each peptide was separately tested for this ability with respect to each of the HLA class I alleles, normalized to the degree observed for a positive control (known T cell epitope for the relevant allele). The results are reported as a score, in which the binding was normalized to the positive control peptide set at 100%. In this analysis, a score of greater than 50 generally was considered to represent good or high affinity binding.

[2] = molecular target: HLA-B*08:01 (Homo sapiens, UniProt P01889, A93T/A95T/D138N/E176V/E187T/K202T/Q94N/R180D/S35A/V36M/Y33D/Y91F); conditions: binding normalized to positive control peptide set at 100%, >50 considered good or high affinity binding
Experimental: as §1, §2

[3] = molecular target: HLA-A*02:01 (Homo sapiens, UniProt P04439, D140Y/D185E/D98H/E176V/E277Q/G131W/G231S/I119V/I121R/I166T/I218V/L300P/L318F/N151K/N90K/P208A/P217A/Q86G/Q94H/R138H/R169H/T345S); conditions: binding normalized to positive control peptide set at 100%, greater than 50 considered good or high affinity binding
Experimental: as §1, §2

[4] = molecular target: HLA-A*03:01 (Homo sapiens, UniProt P04439); conditions: REVEAL score, binding normalized to positive control peptide set at 100%; greater than 50 considered good or high affinity binding
Experimental: as §1, §2

A*11:01 In Vitro Score [1] | B*08:01 In Vitro Score [2] | A*02:01 In Vitro Score [3] | A*03:01 In Vitro [4] | Molecule
1.50 | 0.30 | 1.40 | – | CC[C@H](C)[C@H](NC(=O)[C@H](Cc1ccccc1)NC(=O)[C@H](C)N)C(=O)N[C@H](C(=O)N[C@@H](Cc1ccccc1)C(=O)N[C@@H](Cc1c[nH]c2ccccc12)C(=O)N[C@H](C(=O)N[C@@H](CCCNC(=N)N)C(=O)N[C@@H](CCCNC(=N)N)C(=O)O)C(C)C)[C@@H](C)CC
8.90 | 0.00 | 13.50 | 5.00 | CC(C)[C@H](NC(=O)[C@H](Cc1c[nH]c2ccccc12)NC(=O)[C@@H](N)Cc1ccccc1)C(=O)N[C@@H](C)C(=O)N[C@@H](CCCNC(=N)N)C(=O)NCC(=O)N[C@@H](CCCNC(=N)N)C(=O)N[C@@H](CCCCN)C(=O)N[C@@H](CCCCN)C(=O)O
25.30 | 6.30 | 9.40 | 2.70 | CC(C)C[C@H](NC(=O)CNC(=O)[C@H](CCCNC(=N)N)NC(=O)[C@H](CCCCN)NC(=O)[C@@H](NC(=O)[C@H](Cc1c[nH]c2ccccc12)NC(=O)[C@@H](N)Cc1ccccc1)C(C)C)C(=O)N[C@@H](CCCCN)C(=O)N[C@@H](CCCCN)C(=O)O
7.30 | 0.10 | 8.70 | 3.60 | CC(C)[C@H](NC(=O)[C@H](Cc1c[nH]c2ccccc12)NC(=O)[C@@H](N)Cc1ccccc1)C(=O)N[C@@H](CCCCN)C(=O)N[C@@H](CCCNC(=N)N)C(=O)NCC(=O)N[C@@H](CC(N)=O)C(=O)N[C@@H](CCCCN)C(=O)N[C@@H](CCCCN)C(=O)O
30.90 | 3.20 | 2.20 | 9.00 | CC[C@H](C)[C@H](N)C(=O)N[C@@H](Cc1ccccc1)C(=O)N[C@@H](Cc1c[nH]c2ccccc12)C(=O)N[C@H](C(=O)N[C@@H](CCCCN)C(=O)N[C@@H](CCCNC(=N)N)C(=O)NCC(=O)N[C@@H](Cc1c[nH]cn1)C(=O)N[C@@H](CCCCN)C(=O)O)C(C)C
45.90 | 0.10 | 3.50 | 8.00 | CC[C@H](C)[C@H](N)C(=O)N[C@@H](Cc1ccccc1)C(=O)N[C@@H](Cc1c[nH]c2ccccc12)C(=O)N[C@H](C(=O)N[C@@H](CCCCN)C(=O)N[C@@H](CCCNC(=N)N)C(=O)NCC(=O)N[C@@H](CC(N)=O)C(=O)N[C@@H](CCCCN)C(=O)O)C(C)C
70.60 | 0.30 | 9.60 | 18.60 | CC[C@H](C)[C@H](N)C(=O)N[C@H](C(=O)N[C@@H](Cc1ccccc1)C(=O)N[C@@H](Cc1c[nH]c2ccccc12)C(=O)N[C@H](C(=O)N[C@@H](C)C(=O)N[C@@H](CCCNC(=N)N)C(=O)NCC(=O)N[C@@H](CCCNC(=N)N)C(=O)O)C(C)C)[C@@H](C)CC
42.10 | 0.90 | 9.30 | 4.30 | CC[C@H](C)[C@H](N)C(=O)N[C@H](C(=O)N[C@@H](Cc1ccccc1)C(=O)N[C@@H](Cc1c[nH]c2ccccc12)C(=O)N[C@H](C(=O)N[C@@H](CCCCN)C(=O)N[C@@H](CCCNC(=N)N)C(=O)NCC(=O)N[C@@H](CC(N)=O)C(=O)O)C(C)C)[C@@H](C)CC
100.00 | 0.40 | 13.60 | 16.20 | CC[C@H](C)[C@H](N)C(=O)N[C@H](C(=O)N[C@@H](Cc1ccccc1)C(=O)N[C@@H](Cc1c[nH]c2ccccc12)C(=O)N[C@H](C(=O)N[C@@H](CCCCN)C(=O)N[C@@H](CCCNC(=N)N)C(=O)NCC(=O)N[C@@H](CO)C(=O)O)C(C)C)[C@@H](C)CC
35.20 | 0.40 | 8.40 | 2.80 | CC[C@H](C)[C@H](N)C(=O)N[C@H](C(=O)N[C@@H](Cc1ccccc1)C(=O)N[C@@H](Cc1c[nH]c2ccccc12)C(=O)N[C@H](C(=O)N[C@@H](CC(C)C)C(=O)N[C@@H](CCCNC(=N)N)C(=O)NCC(=O)N[C@@H](CCCNC(=N)N)C(=O)O)C(C)C)[C@@H](C)CC
13.80 | 32.40 | 8.80 | 1.30 | CC(C)C[C@H](NC(=O)[C@H](CCCCN)NC(=O)[C@H](CCCCN)NC(=O)[C@H](CCCNC(=N)N)NC(=O)CNC(=O)[C@H](CCCNC(=N)N)NC(=O)[C@H](C)NC(=O)[C@@H](NC(=O)[C@@H](N)Cc1c[nH]c2ccccc12)C(C)C)C(=O)O
5.00 | 0.00 | 1.20 | 0.70 | CC(C)[C@H](NC(=O)[C@@H](N)Cc1c[nH]c2ccccc12)C(=O)N[C@@H](CCC(N)=O)C(=O)N[C@@H](CCCNC(=N)N)C(=O)NCC(=O)N[C@@H](CC(N)=O)C(=O)N[C@@H](CCCCN)C(=O)N[C@@H](CCCCN)C(=O)N[C@@H](CO)C(=O)O
12.80 | 45.10 | 8.10 | 4.90 | CC(C)C[C@H](NC(=O)[C@H](CCCCN)NC(=O)[C@H](CCCCN)NC(=O)[C@H](CCCNC(=N)N)NC(=O)CNC(=O)[C@H](CCCNC(=N)N)NC(=O)[C@H](CCC(N)=O)NC(=O)[C@@H](NC(=O)[C@@H](N)Cc1c[nH]c2ccccc12)C(C)C)C(=O)O
5.90 | – | 4.40 | 1.20 | CC(C)C[C@H](NC(=O)[C@H](CCCCN)NC(=O)[C@H](CCCCN)NC(=O)[C@H](CO)NC(=O)CNC(=O)[C@H](CCCNC(=N)N)NC(=O)[C@H](CCC(N)=O)NC(=O)[C@@H](NC(=O)[C@@H](N)Cc1c[nH]c2ccccc12)C(C)C)C(=O)O
51.80 | 0.20 | 2.20 | 0.50 | AFIIFWVAR
34.90 | 0.30 | 0.30 | 0.30 | AFIIFWVHR

A*11:01 In Vitro Score [1] | B*08:01 In Vitro Score [2] | A*02:01 In Vitro Score [3] | A*03:01 In Vitro [4] | Molecule
25.90 | 1.90 | 0.50 | 5.70 | AFIIFWVKR
17.20 | 0.20 | 5.70 | 0.30 | AFIIFWVLR
15.00 | 0.00 | 0.40 | 0.20 | AFIIFWVQR
54.00 | 0.30 | 4.50 | 0.30 | AFIIFWVSR
0.90 | 0.20 | 37.30 | 0.00 | FIIFWVHRG
0.40 | 0.10 | 10.10 | 1.40 | FIIFWVKRG
2.40 | 0.20 | 7.20 | 0.10 | FIIFWVLRG
1.50 | 0.60 | 16.80 | 0.40 | FIIFWVQRG
5.10 | 0.40 | 0.20 | 0.10 | FIIFWVSRG
5.60 | 0.00 | 1.60 | 3.60 | FWVHRGRKK
13.20 | 0.30 | 4.30 | 4.70 | FWVKRGAKK
27.60 | 0.40 | 2.60 | 4.10 | FWVKRGHKK
6.50 | 0.00 | 3.50 | 2.20 | FWVKRGRKK
5.60 | 0.10 | 1.90 | 5.90 | FWVKRGSKK
5.00 | 0.00 | 3.30 | 0.40 | FWVLRGRKK
